Assay results published in patent publication US20250108036A1, “COMPOSITIONS FOR REMOVING SENESCENT CELLS AND USES THEREOF” (LIFECEUTIX CO., LTD., priority 2021, published 2025).
Like-named read-outs stand apart in the source and are kept apart here.

Experiments:
Type in all cases: cell-based, human
[1] = tested on: foreskin cells in which senescence was induced by doxorubicin; experiment: CellTiter-Glo cell viability of doxorubicin-induced senescent foreskin cells (Examples 1-2, 10, 11, 13; Tables 4, 63, 65); conditions: Homo sapiens, 72 h, read-out: Survival (%); for viability at 30 µM: 30 μM test compound; for viability at 90 µM: 90 μM test compound; for viability at […]: […] test compound
Description: After 3 days, cell viability was measured using CellTiter-Glo Luminescent Cell Viability Assay (Promega) or light microscopy.

[2] = tested on: HMGN1; experiment: HMGN1 ELISA in culture medium of foreskin cells (Examples 10, 11; Tables 62, 63, 64); conditions: Homo sapiens; for activity at 30 µM: read-out: HMGN1
[3] = tested on: HMGN1; experiment: HMGN1 ELISA in culture medium of A549 cancer cells (Example 12, Table 66); conditions: Homo sapiens; for activity at 90 µM: test compound 90 μM
[4] = tested on: A549; experiment: CellTiter-Glo cell viability of senescent A549 cancer cells (Example 12, Table 67); conditions: Homo sapiens; for viability at 90 µM: 90 μM test compound
[5] = 1.1 μM test compound, doxorubicin-induced senescent foreskin cells, CellTiter-Glo, 0 μM = 100
[6] = 10 μM test compound, doxorubicin-induced senescent foreskin cells, CellTiter-Glo, 0 μM = 100
[7] = doxorubicin-induced senescent foreskin cells, CellTiter-Glo, 0 μM = 100
[8] = A549, doxorubicin-induced senescent A549 cells, ELISA, DMSO = 100, read-out: HMGN1 (amount of HMGN1 secreted in the cell culture)
[9] = A549, doxorubicin-induced senescent A549 cancer cells, 1.1 μM test compound, CellTiter-Glo, read-out: Survival (%)
[10] = A549, doxorubicin-induced senescent A549 cancer cells, 10 μM test compound, CellTiter-Glo, read-out: Survival (%)
[11] = A549, doxorubicin-induced senescent A549 cancer cells, 30 μM test compound, CellTiter-Glo, read-out: Survival (%)
[12] = A549, doxorubicin-induced senescent A549 cancer cells, CellTiter-Glo, read-out: Survival (%)
[13] = 30 μM test compound, doxorubicin-treated foreskin cells, DMSO = 100
[14] = A549, doxorubicin-induced senescent A549 cells, test compound 30 μM, ELISA, DMSO = 100, read-out: HMGN1 (amount of HMGN1 secreted in the cell culture)

| Compound | viability at 1.1 µM [1, 5] [%] | viability at 10 µM [1, 6] [%] | viability at 30 µM [1, 7] [%] | viability at […] [1, 7] [%] | viability at 1.1 µM [4, 9] [%] | viability at 10 µM [4, 10] [%] | viability at 30 µM [4, 11] [%] | activity at 30 µM [2, 13] [%] | activity at 30 µM [3, 14] [%] | also measured |
| --- | --- | --- | --- | --- | --- | --- | --- | --- | --- | --- |
| Cc1ccc(Nc2nccc(N(C)c3ccc4c(C)n(C)nc4c3)n2)cc1S(N)(=O)=O [LX-3301, Pazopanib, reference compound] | 100 | 67.4 | 39.5 | 99.2 | 100 | 85.9 | 51.9 |  |  | viability at 90 µM [1, 7]: 2.7%; activity at 90 µM ([2]; 90 μM test compound, doxorubicin-treated foreskin cells, DMSO = 100): 228%; activity at 90 µM [3, 8]: 229%; viability at 90 µM [4, 12]: 4.2% |
| COC(=O)N[C@]12CCC(C)(C)C[C@H]1[C@H]1C(=O)C=C3[C@@]4(C)C=C(C#N)C(=O)C(C)(C)[C@@H]4CC[C@@]3(C)[C@]1(C)CC2 [LX-2305] | 19.6 |  |  |  | 33.6 |  |  | 292 | 269 |  |
| C=CC(=O)NC[C@]12CCC(C)(C)C[C@H]1[C@H]1C(=O)C=C3[C@@]4(C)C=C(C#N)C(=O)C(C)(C)[C@@H]4CC[C@@]3(C)[C@]1(C)CC2 [LX-2509] | 81.1 |  |  | 13.5 | 106 | 21.8 |  | 301 | 305 |  |
| Cn1cc(-c2ccccc2)c(-n2cccc2)n1 [LX-907] | 98.8 | 62.8 | 9.7 | 95.1 | 90.1 | 78.5 | 53.7 | 297 |  | activity at 90 µM [3, 8]: 264%; viability at 90 µM [4, 12]: 5.9% |
| COC(=O)C1=C(C)NC(C)=C(C(=O)OC(C)(C)CN(C)CCC(c2ccccc2)c2ccccc2)C1c1cccc([N+](=O)[O-])c1 (stereo not drawn) [LX-2801, Lercanidipine, reference compound] | 104 | 51.2 | 25.3 | 98.5 | 89.6 | 58.6 | 14.2 | 241 | 315 |  |
| Cc1ccc(-c2c(C#N)c(N)n3c(nc4ccccc43)c2C#N)cc1 [LX-1101] | 108 | 47.1 | 22.8 | 112 | 95.4 | 92.7 | 88.3 | 268 |  | activity at 90 µM [3, 8]: 183%; viability at 90 µM [4, 12]: 23.7% |
| CC1(C)CC[C@]2(c3nc(CO)no3)CC[C@]3(C)[C@H](C(=O)C=C4[C@@]5(C)C=C(C#N)C(=O)C(C)(C)[C@@H]5CC[C@]43C)[C@@H]2C1 [LX-2508] | 75.6 |  |  | 28.2 | 93.5 | 43.9 |  | 313 | 283 |  |
| O=C(O)Cn1nnc(-c2cc(N3CCC(Oc4cc(F)ccc4Br)CC3)no2)n1 [LX-309] | 52.3 | 4.3 |  | 12.5 | 100 | 92.3 | 28.1 | 283 | 254 |  |
| CCOc1cc2ncc(C#N)c(Nc3ccc(OCc4ccccn4)c(Cl)c3)c2cc1NC(=O)/C=C/CN(C)C [LX-1608, Neratinib, reference compound] |  |  |  |  |  |  |  |  |  | viability at 1.1 µM [1]: 45.1%; viability at 10 µM [1]: 3.9%; activity at 30 µM [2]: 296%; activity at 30 µM ([3]; A549, read-out: HMGN1 (amount of HMGN1 secreted in the cell culture)): 317%; viability at 1.1 µM ([4]; A549, read-out: Survival (%)): 59.3%; viability at 10 µM ([4]; A549, read-out: Survival (%)): 24.7%; viability at 30 µM ([4]; A549, read-out: Survival (%)): 2.6% |
| C[C@H]1[C@H](C)CC[C@]2(C(=O)O)CC[C@]3(C)C(=CC[C@@H]4[C@@]5(C)C[C@@H](O)[C@H](O)C(C)(C)[C@@H]5CC[C@]43C)[C@H]12 [LX-2002, Corosolic acid] | 101 |  |  | 12.4 | 99.6 | 10.4 |  | 305 | 314 |  |
| O=C(O)CCCCC(CCSCc1ccccc1)SCc1ccccc1 (stereo not drawn) [LX-3109, Devimistat, reference compound] | 97.2 | 88.7 | 74 | 96 | 108 | 85.7 | 68.2 |  |  | viability at 90 µM [1, 7]: 48.7%; viability at 270 µM ([1]; 270 μM test compound, doxorubicin-induced senescent foreskin cells, CellTiter-Glo, 0 μM = 100): 19.7%; activity at 270 µM ([2]; 270 μM test compound, doxorubicin-treated foreskin cells, DMSO = 100): 232%; activity at 270 µM ([3]; A549, doxorubicin-induced senescent A549 cells, test compound 270 μM, ELISA, DMSO = 100, read-out: HMGN1 (amount of HMGN1 secreted in the cell culture)): 247%; viability at 90 µM [4, 12]: 43.4%; viability at 270 µM ([4]; A549, doxorubicin-induced senescent A549 cancer cells, 270 μM test compound, CellTiter-Glo, read-out: Survival (%)): 0.1% |
| Cc1c(O)cccc1C(=O)N[C@@H](CSc1ccccc1)[C@H](O)CN1C[C@H]2CCCC[C@H]2C[C@H]1C(=O)NC(C)(C)C [LX-1905, Nelfinavir, reference compound] | 102 | 27.9 | 13.2 | 66.4 | 100 | 89.1 | 53.9 | 315 | 201 |  |
| COc1nc(-c2cccnc2)nc2c1CC[C@H]1[C@H](C)C(=O)C(C#N)=C[C@]21C [LX-2315] | 75.2 |  |  | 2.9 | 98.2 | 39.2 |  | 235 | 247 |  |
| CN(C)CCCN1c2ccccc2CCc2ccc(Cl)cc21 [LX-3101, Clomipramine, reference compound] | 93.3 | 11.7 |  | 75.8 | 89.2 | 7.1 |  | 284 | 334 |  |
| C[C@@H]1C(=O)C(C#N)=C[C@]2(C)c3nn(C)c(-c4ccccc4)c3CC[C@@H]12 [LX-2312] | 48.6 |  |  | 5.2 | 96.3 | 7.8 |  | 293 | 339 |  |
| CC1(C)CC[C@]2(NS(C)(=O)=O)CC[C@]3(C)[C@H](C(=O)C=C4[C@@]5(C)C=C(C#N)C(=O)C(C)(C)[C@@H]5CC[C@]43C)[C@@H]2C1 [LX-2306] | 29.8 |  |  | 7.1 | 102 | 11.5 |  | 301 | 296 |  |
| C=CC(=O)N1CCC[C@@H](n2nc(-c3ccc(Oc4ccccc4)cc3)c3c(N)ncnc32)C1 [LX-3209, Ibrutinib, reference compound] | 105 | 2 |  | 52.8 | 95.4 | 55.7 | 2.2 | 274 | 199 |  |
